According to patent US20040198663A1, “Method of treating cardiac ischemia by using erythropoietin” (priority 2003, published 2004):
“Also recorded” adds a separate entry of the source.

System: hearts from normoxic rabbits
Assay: Mechanism studies: inhibitors/blockers perfused alone, then with erythropoietin, before global ischemia
Set-up: species or system New Zealand White rabbit
Conditions: for effect of protein kinase inhibitor on the cardioprotective effect of erythropoietin: inhibitor 15 min alone, then 15 min with erythropoietin 1.0 U/ml prior to ischemia
Method: Resistance to myocardial ischemia. Hearts from infant rabbits were perfused with bicarbonate buffer, and biventricular function was monitored continuously throughout each experiment as described in Rafiee et al., Circulation 106:239-45 (2002). For concentration response studies, hearts were then perfused with erythropoietin (0.5-10.0 U/ml) for 15 minutes prior to 30 minutes ischemia and 35 minutes reperfusion. For mechanism studies with protein kinase inhibitors, potassium channel blockers or nitric oxide synthase inhibitors, hearts were perfused with drugs for 15 minutes alone followed by 15 minutes in combination with erythropoietin prior to ischemia. Hearts perfused with protein kinase inhibitors or potassium channel blockers alone in the absence of erythropoietin for 30 minutes prior to ischemia served as untreated controls for these studies. Recovery of post-ischemic left and right ventricular developed pressure was expressed as a percentage of its pre-drug, pre-ischemic value.
Hearts from normoxic rabbits were perfused with protein kinase inhibitors alone for 15 minutes and then combined with erythropoietin for a further 15 minute period prior to ischemia.
Hearts were perfused with KATP channel blockers alone for 15 minutes and then in combination with erythropoietin (1.0 U/ml) for another 15-minute period prior to ischemia.
Hearts were perfused with Paxilline (1 μM), a blocker of the KCa channel, alone for 15 minutes and then in combination with erythropoietin (1.0 U/ml) for another 15-minute period prior to ischemia.
Hearts from normoxic rabbits were perfused with nitric oxide synthase inhibitors combined with erythropoietin (1.0 U/ml) for 15 minutes prior to ischemia.

Q: Which “effect on the cardioprotective effect of erythropoietin” value (shortened to “effect on the cardioprotective effect”) (5-hydroxydecanoate 300 μM, 15 min alone then 15 min with erythropoietin 1.0 U/ml) does the source give for CCCCCC(O)CCCC(=O)O (centres unmarked) [5-hydroxydecanoate] here?
A: Its value is “partially”.

Q: And the “effect on the cardioprotective effect” value (5-hydroxydecanoate 300 μM, 15 min alone then 15 min with erythropoietin 1.0 U/ml, listed as 5-HD)?
A: The value was “abolished; also recorded: only partially prevented”.

Q: How did the “effect on the cardioprotective effect” value (glibenclamide 3 μM, 15 min alone then 15 min with erythropoietin 1.0 U/ml) turn out when COc1ccc(Cl)cc1C(=O)NCCc1ccc(S(=O)(=O)NC(=O)NC2CCCCC2)cc1 [Glibenclamide] was run?
A: Its value is “completely abolished”.

Q: What about the “effect on the cardioprotective effect” value (glibenclamide 3 μM, 15 min alone then 15 min with erythropoietin 1.0 U/ml, listed as glibenclamide) of the same compound?
A: Its value is “abolished; also recorded: completely prevented”.

Q: How did the “effect on the cardioprotective effect” value (HMR 1098 30 μM, 15 min alone then 15 min with erythropoietin 1.0 U/ml) turn out when CNC(=S)NS(=O)(=O)c1cc(CCNC(=O)c2cc(Cl)ccc2OC)ccc1OC [HMR 1098] was run?
A: The value was “abolished; also recorded: completely prevented; also recorded: completely blocked”.

Q: How did the “effect on the cardioprotective effect” value (L-NAME 200 μM combined with erythropoietin 1.0 U/ml for 15 minutes) turn out when COC(=O)[C@@H](N)CCCNC(=N)N[N+](=O)[O-] [L-NAME] was run?
A: Its value is “did not block”.

Q: Which “effect on the cardioprotective effect” value (L-NMA 100 μM combined with erythropoietin 1.0 U/ml for 15 minutes) does the source give for CNC(=N)NCCC[C@H](N)C(=O)O [L-NMA] here?
A: Its value is “did not block”.

Q: For COc1cccc(-c2cc(=O)c3ccccc3o2)c1N [PD98059], which “effect of protein kinase inhibitor on the cardioprotective effect of erythropoietin” value (shortened to “effect of protein kinase inhibitor”) is on record?
A: The value was “abolished”.

Q: For CC(C)(O)[C@H]1O[C@H]2CC[C@@]3(C)[C@@](O)(CC[C@H]4Cc5c([nH]c6ccccc56)[C@@]43C)C2=CC1=O [Paxilline], which “effect on untreated hearts” value (Paxilline 1 μM alone, no erythropoietin) is on record?
A: Its value is “no effect”.

Q: C[S+]([O-])c1ccc(-c2nc(-c3ccncc3)c(-c3ccc(F)cc3)[nH]2)cc1 (centres unmarked) [SB203580] was tested. Which “effect of protein kinase inhibitor” value did it give?
A: The value was “abolished”.

Q: How did the “effect of protein kinase inhibitor” value turn out when COc1ccc2c(c[n+](C)c3c4cc5c(cc4ccc23)OCO5)c1OC [chelerythrine] was run?
A: The value was “abolished”.
